PMC8903829 (eLife, 2022)
Where two headings read alike, the source gives them in different places.

Tests used:
Scn8a^N1768D/+ mice = assay: Modified 6 Hz psychomotor seizure assay; assay type: in vivo, mouse
In short: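 Heterozygous Scn8a^N1768D/+ mice aged 5 weeks (p35) underwent a modified 6 Hz psychomotor seizure assay as an in vivo readout of NaV1.6-mediated efficacy. Compounds were given 2 hr before corneal electroshock (6 Hz, 12 mA, 3 s, 0.3-ms pulse interval) after Alcaine eye anesthesia. Blinded scoring counted generalized tonic-clonic seizure with hindlimb extension as unprotected (1), prevention as protected (0).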

[1] = Bioanalytical assessment of plasma and brain concentrations after 6 Hz assay; assay type: in vivo, mouse; conditions: Scn8a^N1768D/+, mouse, in vivo, SCN8A mouse 6HZ
In short: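 Blood (cardiac puncture, EDTA) and whole brains taken at end of the in vivo assay; brain homogenized in 1:1 acetonitrile/water. Plasma and homogenate extracted by acetonitrile protein precipitation with internal standard, quantified by UHPLC-ESI-MS/MS against a 1/X-weighted linear calibration.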

COC[C@@H](NC(C)=O)C(=O)NCc1ccccc1 [lacosamide, Lacosamide, reference compound]
EC50 (Scn8a^N1768D/+ mice; Mus musculus, 2 h, read-out: brain EC50): 3.3 µM
SCN8A mouse 6HZ Fraction of animals seizing (Scn8a^N1768D/+ mice; Study18007, 3 mg/kg): 0.429
SCN8A mouse 6HZ Fraction of animals seizing (Scn8a^N1768D/+ mice; Study18007, 10 mg/kg): 0.286
SCN8A mouse 6HZ Fraction of animals seizing (Scn8a^N1768D/+ mice; Study18007, 30 mg/kg): 0.286
SCN8A mouse 6HZ Fraction of animals seizing (Scn8a^N1768D/+ mice; Study18011, 1 mg/kg): 0.858
SCN8A mouse 6HZ Fraction of animals seizing (Scn8a^N1768D/+ mice; Study18011, 30 mg/kg): 0.5
SCN8A mouse 6HZ Fraction of animals seizing (Scn8a^N1768D/+ mice; Study18011, 56 mg/kg): 0.286
SCN8A mouse 6HZ Fraction of animals seizing (Scn8a^N1768D/+ mice; Study18028, 10 mg/kg): 0.375
SCN8A mouse 6HZ Fraction of animals seizing (Scn8a^N1768D/+ mice; Study18042, 10 mg/kg): 0.5
concentration at 2 h ([1]; 1 mg/kg, Study18011, 1 mg/kg, read-out: Mean [Brain]): 0.728 µM
concentration at 2 h ([1]; 1 mg/kg, Study18011, 1 mg/kg, read-out: Mean [Palsma]): 1.12 µM
concentration at 2 h ([1]; 3 mg/kg, Study18007, 3 mg/kg, read-out: Mean [Brain]): 2.84 µM
concentration at 2 h ([1]; 3 mg/kg, Study18007, 3 mg/kg, read-out: Mean [Palsma]): 3.48 µM
concentration at 2 h ([1]; 10 mg/kg, Study18007, 10 mg/kg, read-out: Mean [Brain]): 9.32 µM
concentration at 2 h ([1]; 10 mg/kg, Study18007, 10 mg/kg, read-out: Mean [Palsma]): 10.7 µM
concentration at 2 h ([1]; 10 mg/kg, Study18028, 10 mg/kg, read-out: Mean [Brain]): 7.58 µM
concentration at 2 h ([1]; 10 mg/kg, Study18028, 10 mg/kg, read-out: Mean [Palsma]): 11.8 µM
concentration at 2 h ([1]; 10 mg/kg, Study18042, 10 mg/kg, read-out: Mean [Brain]): 3.27 µM
concentration at 2 h ([1]; 10 mg/kg, Study18042, 10 mg/kg, read-out: Mean [Palsma]): 14.4 µM
concentration at 2 h ([1]; 30 mg/kg, Study18007, 30 mg/kg, read-out: Mean [Brain]): 21 µM
concentration at 2 h ([1]; 30 mg/kg, Study18007, 30 mg/kg, read-out: Mean [Palsma]): 25.2 µM
concentration at 2 h ([1]; 30 mg/kg, Study18011, 30 mg/kg, read-out: Mean [Brain]): 19.2 µM
concentration at 2 h ([1]; 30 mg/kg, Study18011, 30 mg/kg, read-out: Mean [Palsma]): 29.6 µM
concentration at 2 h ([1]; 56 mg/kg, Study18011, 56 mg/kg, read-out: Mean [Brain]): 28.3 µM
concentration at 2 h ([1]; 56 mg/kg, Study18011, 56 mg/kg, read-out: Mean [Palsma]): 44.7 µM
